Source: patent publication US10000791B2, “Measurement method for human pancreatic lipase activity” (ASAHI KASEI PHARMA CORPORATION, priority 2013, dated 2018)

Tested on: human pancreatic lipase
Assay: lipase activity measured in control, normal and heparin-administered samples with each reagent (1,2-dioleoyl glycerol, UV method; Liquitech Lipase Color II for verification)
Type: biochemical
Parameters: lipase activity relative to (1) comparative example NaDCA (Table 1): concentration or dose not given beside the values
Conditions: for lipase activity (Table 1): NaDCA pH 8.15, other bile salts pH 7.0; for lipase activity relative to (1) comparative example NaDCA (Table 1): pH 7.0

With `C[C@H](CCC(=O)NCCS(=O)(=O)[O-])[C@H]1CC[C@H]2[C@@H]3CC[C@@H]4C[C@H](O)CC[C@]4(C)[C@H]3C[C@H](O)[C@]12C.[Na+]` [NaTDCA, sodium taurodeoxycholate] the “lipase activity (Table 1)” value (Normal sample 1) was 43.4 U/L, the “lipase activity relative to (1) comparative example NaDCA (Table 1)” value (Normal sample 1) was 111.1% and the “lipase activity (Table 1)” value (Normal sample 2) was 96.4 U/L. The “lipase activity relative to (1) comparative example NaDCA (Table 1)” value (Normal sample 2) was 101.4%, the “lipase activity (Table 1)” value (Normal sample 3) was 50.7 U/L and the “lipase activity relative to (1) comparative example NaDCA (Table 1)” value (Normal sample 3) was 108.7%. For the same compound, the “lipase activity (Table 1)” value (Normal sample 4) was 44.5 U/L, the “lipase activity relative to (1) comparative example NaDCA (Table 1)” value (Normal sample 4) was 102.3% and the “lipase activity (Table 1)” value (Normal sample 5) was 31.7 U/L. For the same compound, the “lipase activity relative to (1) comparative example NaDCA (Table 1)” value (Normal sample 5) was 77.8%, the “lipase activity (Table 1)” value (sample Heparin 1) was 30.1 U/L and the “lipase activity relative to (1) comparative example NaDCA (Table 1)” value (sample Heparin 1) was 39.2%. For the same compound, the “lipase activity (Table 1)” value (sample Heparin 2) was 44.2 U/L, the “lipase activity relative to (1) comparative example NaDCA (Table 1)” value (sample Heparin 2) was 50.9% and the “lipase activity (Table 1)” value (sample Heparin 3) was 37.9 U/L. The “lipase activity relative to (1) comparative example NaDCA (Table 1)” value (sample Heparin 3) was 33.6%, the “lipase activity (Table 1)” value (sample Heparin 4) was 28.9 U/L and the “lipase activity relative to (1) comparative example NaDCA (Table 1)” value (sample Heparin 4) was 28.5%. For the same compound, the “lipase activity (Table 1)” value (sample Heparin 5) was 30.1 U/L, the “lipase activity relative to (1) comparative example NaDCA (Table 1)” value (sample Heparin 5) was 44.0% and the “lipase activity (Table 1)” value (sample Heparin 6) was 30.1 U/L. For the same compound, the “lipase activity relative to (1) comparative example NaDCA (Table 1)” value (sample Heparin 6) was 43.4%, the “lipase activity (Table 1)” value (sample Heparin 7) was 50.4 U/L and the “lipase activity relative to (1) comparative example NaDCA (Table 1)” value (sample Heparin 7) was 36.4%. The “lipase activity (Table 1)” value (sample Heparin 8) was 54.7 U/L, the “lipase activity relative to (1) comparative example NaDCA (Table 1)” value (sample Heparin 8) was 43.4% and the “lipase activity (Table 1)” value (sample Heparin 9) was 82.4 U/L. For the same compound, the “lipase activity relative to (1) comparative example NaDCA (Table 1)” value (sample Heparin 9) was 48.8%, the “lipase activity (Table 3)” value (sample Heparin 21, pH 6.2) was 35.9 U/L and the “lipase activity (Table 3)” value (sample Heparin 21, pH 6.4) was 37.9 U/L. The “lipase activity (Table 3)” value (sample Heparin 21, pH 6.6) was 40.9 U/L, the “lipase activity (Table 3)” value (sample Heparin 21, pH 6.9) was 48.6 U/L and the “lipase activity (Table 3)” value (sample Heparin 21, pH 7.2) was 47.6 U/L. The “lipase activity (Table 3)” value (sample Heparin 21, pH 7.4) was 44.5 U/L, the “lipase activity (Table 3)” value (sample Heparin 21, pH 7.6) was 34.7 U/L and the “lipase activity (Table 3)” value (sample Heparin 22, pH 6.2) was 39.7 U/L. The “lipase activity (Table 3)” value (sample Heparin 22, pH 6.4) was 41.7 U/L, the “lipase activity (Table 3)” value (sample Heparin 22, pH 6.6) was 45.5 U/L and the “lipase activity (Table 3)” value (sample Heparin 22, pH 6.9) was 53.6 U/L. For the same compound, the “lipase activity (Table 3)” value (sample Heparin 22, pH 7.2) was 52.6 U/L, the “lipase activity (Table 3)” value (sample Heparin 22, pH 7.4) was 49.2 U/L and the “lipase activity (Table 3)” value (sample Heparin 22, pH 7.6) was 38.3 U/L. For the same compound, the “lipase activity (Table 3)” value (sample Heparin 23, pH 6.2) was 61.0 U/L, the “lipase activity (Table 3)” value (sample Heparin 23, pH 6.4) was 63.0 U/L and the “lipase activity (Table 3)” value (sample Heparin 23, pH 6.6) was 71.4 U/L. The “lipase activity (Table 3)” value (sample Heparin 23, pH 6.9) was 81.7 U/L, the “lipase activity (Table 3)” value (sample Heparin 23, pH 7.2) was 80.5 U/L and the “lipase activity (Table 3)” value (sample Heparin 23, pH 7.4) was 75.8 U/L. The “lipase activity (Table 3)” value (sample Heparin 23, pH 7.6) was 58.6 U/L, the “lipase activity (Table 3)” value (sample Heparin 24, pH 6.2) was 44.9 U/L and the “lipase activity (Table 3)” value (sample Heparin 24, pH 6.4) was 46.9 U/L. For the same compound, the “lipase activity (Table 3)” value (sample Heparin 24, pH 6.6) was 51.8 U/L, the “lipase activity (Table 3)” value (sample Heparin 24, pH 6.9) was 60.4 U/L and the “lipase activity (Table 3)” value (sample Heparin 24, pH 7.2) was 59.4 U/L. The “lipase activity (Table 3)” value (sample Heparin 24, pH 7.4) was 55.7 U/L, the “lipase activity (Table 3)” value (sample Heparin 24, pH 7.6) was 43.2 U/L and the “lipase activity (Table 3)” value (sample Heparin 25, pH 6.2) was 38.0 U/L. The “lipase activity (Table 3)” value (sample Heparin 25, pH 6.4) was 40.0 U/L, the “lipase activity (Table 3)” value (sample Heparin 25, pH 6.6) was 43.5 U/L and the “lipase activity (Table 3)” value (sample Heparin 25, pH 6.9) was 51.4 U/L. For the same compound, the “lipase activity (Table 3)” value (sample Heparin 25, pH 7.2) was 50.4 U/L, the “lipase activity (Table 3)” value (sample Heparin 25, pH 7.4) was 47.1 U/L and the “lipase activity (Table 3)” value (sample Heparin 25, pH 7.6) was 36.7 U/L. For the same compound, the “lipase activity (Table 1)” value (sample PRECINORM) was 52.1 U/L, the “lipase activity (Table 3)” value (sample PRECINORM, pH 6.2) was 46.8 U/L and the “lipase activity (Table 3)” value (sample PRECINORM, pH 6.4) was 50.0 U/L. For the same compound, the “lipase activity (Table 3)” value (sample PRECINORM, pH 6.6) was 52.6 U/L, the “lipase activity (Table 3)” value (sample PRECINORM, pH 6.9) was 67.1 U/L and the “lipase activity relative to (1) comparative example NaDCA (Table 1)” value (sample PRECINORM) was 102.1%. The “lipase activity (Table 3)” value (sample PRECINORM, pH 7.2) was 59.5 U/L, the “lipase activity (Table 3)” value (sample PRECINORM, pH 7.4) was 57.1 U/L and the “lipase activity (Table 3)” value (sample PRECINORM, pH 7.6) was 52.0 U/L. For the same compound, the “lipase activity (Table 1)” value (sample PRECIPATH) was 134.6 U/L, the “lipase activity (Table 3)” value (sample PRECIPATH, pH 6.2) was 110.7 U/L and the “lipase activity (Table 3)” value (sample PRECIPATH, pH 6.4) was 109.5 U/L. The “lipase activity (Table 3)” value (sample PRECIPATH, pH 6.6) was 140.3 U/L, the “lipase activity (Table 3)” value (sample PRECIPATH, pH 6.9) was 157.3 U/L and the “lipase activity relative to (1) comparative example NaDCA (Table 1)” value (sample PRECIPATH) was 105.2%. For the same compound, the “lipase activity (Table 3)” value (sample PRECIPATH, pH 7.2) was 159.2 U/L, the “lipase activity (Table 3)” value (sample PRECIPATH, pH 7.4) was 152.7 U/L and the “lipase activity (Table 3)” value (sample PRECIPATH, pH 7.6) was 110.7 U/L. For the same compound, the “lipase activity (Table 3)” value (sample Pool 1, pH 6.2) was 42.1 U/L, the “lipase activity (Table 3)” value (sample Pool 1, pH 6.4) was 44.6 U/L and the “lipase activity (Table 3)” value (sample Pool 1, pH 6.6) was 45.2 U/L. For the same compound, the “lipase activity (Table 3)” value (sample Pool 1, pH 6.9) was 53.0 U/L, the “lipase activity (Table 3)” value (sample Pool 1, pH 7.2) was 52.4 U/L and the “lipase activity (Table 3)” value (sample Pool 1, pH 7.4) was 45.4 U/L. The “lipase activity (Table 3)” value (sample Pool 1, pH 7.6) was 39.1 U/L, the “lipase activity (Table 3)” value (sample Pool 2, pH 6.2) was 22.8 U/L and the “lipase activity (Table 3)” value (sample Pool 2, pH 6.4) was 24.8 U/L. For the same compound, the “lipase activity (Table 3)” value (sample Pool 2, pH 6.6) was 23.6 U/L, the “lipase activity (Table 3)” value (sample Pool 2, pH 6.9) was 28.0 U/L and the “lipase activity (Table 3)” value (sample Pool 2, pH 7.2) was 28.2 U/L. For the same compound, the “lipase activity (Table 3)” value (sample Pool 2, pH 7.4) was 27.0 U/L, the “lipase activity (Table 3)” value (sample Pool 2, pH 7.6) was 18.3 U/L and the “lipase activity (Table 3)” value (sample Seraclear, pH 6.2) was 23.7 U/L. For the same compound, the “lipase activity (Table 3)” value (sample Seraclear, pH 6.4) was 25.4 U/L, the “lipase activity (Table 3)” value (sample Seraclear, pH 6.6) was 28.6 U/L and the “lipase activity (Table 3)” value (sample Seraclear, pH 6.9) was 31.7 U/L. The “lipase activity (Table 3)” value (sample Seraclear, pH 7.2) was 33.8 U/L, the “lipase activity (Table 3)” value (sample Seraclear, pH 7.4) was 31.4 U/L and the “lipase activity (Table 3)” value (sample Seraclear, pH 7.6) was 20.2 U/L.
